Where two headings read alike, the source gives them in different places.
Columns and labels:
[1] = system: Spodoptera littoralis; assay: B-1 insecticidal stomach-poison action on Spodoptera littoralis (sprayed cotton plants); type: in vivo; settings: Wirkstoffkonzentration 3 ppm; nach 24 Stunden; L1 larvae on sprayed cotton plants
Method: Eingetopfte Baumwollpflanzen im 5-Blatt-Stadium werden mit einer acetonisch/wässrigen Versuchslösung besprüht, die 3, 12,5 oder 50 ppm der zu prüfenden Verbindung enthält.
Nach dem Antrocknen des Belags werden die Pflanzen mit ca. 30 Larven (L₁-Stadium) von Spodoptera littoralis besetzt. Pro Versuchsverbindung und pro Test-Spezies verwendet man zwei Pflanzen. Der Versuch wird bei ca. 24°C und 60 % relativer Luftfeuchtigkeit durchgeführt. Auswertungen und Zwischenauswertungen auf moribunde Tiere, Wachstum und Larven und Frassschäden erfolgen nach 24 Stunden, 48 Stunden und 72 Stunden.

[2] = system: L₁-Larven von Lucilia sericata; assay: B-3 action against L1 larvae of Lucilia sericata (larval culture medium); type: in vivo; settings: after 4 days; for Wirkung (Mortalitätsrate): 100 ppm; for mortality at 100 ppm: Lucilia sericata, 96 h, read-out: Wirkung (Mortalitätsrate)
Method: 1 ml einer wässrigen Suspension der zu prüfenden Aktivsubstanz werden so mit 3 ml eines speziellen Larvenzuchtmediums bei ca. 50°C vermischt, dass ein Homogenisat von wahlweise 250 ppm oder 100 ppm Wirkstoffgehalt entsteht. In jede Reagenzglas-Probe werden ca. 30 Lucilia-Larven (L₁) eingesetzt. Nach 4 Tagen wird die Mortalitätsrate bestimmt. Verbindungen der Formel I aus den Tabellen, wie z.B. die Verbindungen Nr. 2.8, 2.17, 2.31, 2.33, 2.35, 2.43, 2.1, 2.18 und 2.45 erzielten mit 100 ppm eine Wirkung von 100 %.

[3] = system: Haemonchus concortus und Trichostrongylus colubriformis; assay: B-5 test on sheep infected with nematodes (worm egg count in faeces); type: in vivo, Schafe; settings: 0,2 mg/kg, single dose by stomach tube or intraruminal injection; compared with untreated infected sheep
Method: Der Wirkstoff wird als Suspension formuliert mit einer Magensonde oder durch Injektion in den Pansen eines Schafes gegeben, das mit Haemonchus concortus und Trychostrongylus colubriformis künstlich infiziert worden ist. Pro Dosis werden 1 bis 3 Tiere verwendet. Jedes Schaf wird nur einmal mit einer einzigen Dosis behandelt, und zwar wahlweise mit 0,5 mg oder 0,2 mg/kg Körpergewicht. Die Evaluierung erfolgt durch Vergleich der Anzahl der vor und nach Behandlung im Kot der Schafe ausgeschiedenen Wurmeier.
Gleichzeitig und gleichartig infizierte aber unbehandelte Schafe dienen als Kontrolle.

[4] = system: Aphis craccivora; assay: B-6 contact action on Aphis craccivora (sprayed pea seedlings); type: in vivo; settings: 12,5 ppm, after 3 days; for mortality at 12.5 ppm: Aphis craccivora, 72 h, read-out: Abtötung
From the text: Erbsenkeimlinge, die mit sämtlichen Entwicklungsstadien der Laus infiziert sind, werden mit einer aus einem Emulsionskonzentrat hergestellten Wirkstofflösung besprüht, die wahlweise 50 ppm, 25 ppm oder 12,5 ppm Wirkstoff enthält. Nach 3 Tagen wird auf mehr als 80 % tote bzw. abgefallene Blattläuse ausgewertet. Nur bei dieser Wirkungshöhe wird ein Präparat als wirksam eingestuft.

[5] = system: Dermanyssus gallinae; assay: B-9 miticidal action against Dermanyssus gallinae; type: in vivo; settings: for Wirkung (Mortalität): 4320 min; for mortality at 100 ppm: Dermanyssus gallinae, 72 h, read-out: Wirkung (Mortalität)
Method: 2 bis 3 ml einer Testlösung (100, 10, 1 und 0,1 ppm Aktivsubstanz) werden in einen nach oben offenen Glasbehälter gegeben und ca. 200 Milben in unterschiedlichen Entwicklungsstadien in diesen Behälter eingesetzt. Der Glasbehälter wird mit einem Wattebausch verschlossen und 10 Minuten gleichmässig, bis zur vollständigen Benetzung der Milben geschüttelt. Danach wird der Behälter umgekehrt hingestellt, bis die überschüssige Testlösung von der Watte aufgesogen ist. Der Behälter wird erneut gekehrt und die behandelten […] zur Evaluierung der Wirksamkeit der Testsubstanzen drei Tage unter Laborbedingungen beobachtet, wobei die Mortalität als Massstab für Wirksamkeit herangezogen wird.

[6] = system: Aedes aegypti; assay: B-7 larvicidal action against Aedes aegypti; type: in vivo; settings: 1,6 ppm; nach einem Tag
Method: Auf die Oberfläche von 150 ml Wasser, das sich in einem Behälter befindet, wird soviel einer 0,1 %igen acetonischen Lösung des Wirkstoffes pipettiert, dass Konzentrationen von wahlweise 10 ppm, 3,3 ppm und 1,6 ppm erhalten werden. Nach Verdunsten des Acetons wird der Behälter mit ca. 30-40 3 Tage alten Aedes-Larven beschickt. Nach 1, 2 und 5 Tagen wird die Mortalität geprüft.

[7] = system: OP-sensible Tetranychus urticae; assay: B-2 action against plant-damaging acarids, OP-sensitive Tetranychus urticae (sprayed bean plants); type: in vivo; settings: Wirkstoffkonzentration 0,4 ppm; evaluated after seven days; all mite stages on bean plants
Method: Die Primärblätter von Bohnenpflanzen (Phaseolus vulgaris) werden 16 Stunden vor dem Versuch mit einem durch T. urticae infestierten, aus einer Massenzucht stammenden Blattstück belegt. Die so mit allen Milben-Stadien infestierten Pflanzen werden nach Entfernung des Blattstücks mit einer Versuchslösung bis zur Tropfnässe besprüht, die wahlweise 0,4 ppm oder 1,6 ppm der zu prüfenden Verbindung enthält. Die Temperatur in der Gewächshauskabine beträgt ca. 25°C.
Nach sieben Tagen wird unter dem Binokular auf Prozentsatz mobiler Stadien (Adulte und Nymphen) und auf vorhandene Eier ausgewertet.

[8] = system: Boophilus microplus (Biarra-Stamm); assay: B-4 acaricidal action against Boophilus microplus (injection into engorged female ticks, IR90); type: in vivo; settings: injection of 1, 0,1 or 0,01 µg per tick; dose of the result not stated
Method: Auf einer PVC-Platte wird waagrecht ein Klebstreifen so befestigt, das darauf 10 mit Blut vollgesogene Zecken-Weibchen von Boophilus microplus (Biarra-Stamm) nebeneinander in einer Reihe mit dem Rücken aufgeklebt werden können. Jeder Zecke wird mit einer Injektionsnadel 1 µl einer Flüssigkeit injiziert, die eine 1:1-Mischung von Polyethylenglykol und Aceton darstellt und in der eine bestimmte Wirkstoffmenge von wahlweise 1, 0,1 oder 0,01 µg pro Zecke gelöst ist. Kontrolltiere erhalten eine wirkstofffreie Injektion. Nach der Behandlung werden die Tiere unter Normalbedingungen in einem Insektarium bei ca. 28°C und 80 % relativer Luftfeuchtigkeit gehalten, bis die Eiablage erfolgt und die Larven aus den Eiern der Kontrolltiere geschlüpft sind.
Die Aktivität einer geprüften Substanz wird mit der IR₉₀ bestimmt, d.h. es wird jene Wirkstoffdosis ermittelt, bei der noch nach 30 Tagen 9 von 10 Zeckenweibchen (= 90 %) Eier ablegen, die nicht schlupffähig sind.

[9] = system: Meloidogyne incognita; assay: B-8 soil-nematicidal action against Meloidogyne incognita (tomato plants, root-knot index); type: in vivo; settings: 0,002 % Aktivsubstanz based on soil volume; after 4 weeks; untreated infected controls = 100 %
Method: Eier von Meloidogyne incognita werden in Sand eingemischt. Dieses Gemisch wird dann in 200 ml fassende Tontöpfe eingebracht (5000 Eier pro Topf). Am gleichen Tag wird pro Topf eine 3 Wochen alte Tomatenpflanze gepflanzt und der formulierte Wirkstoff mittels Druckapplikation in die Töpfe hineingegeben (0,002 % Aktivsubstanz bezogen auf das Bodenvolumen). Die eingetopften Pflanzen werden nun bei einer Temperatur von 26±1°C und einer relativen Luftfeuchtigkeit von 60 % in einem Gewächshaus aufgestellt. Nach Ablauf von 4 Wochen erfolgt eine Evaluierung durch Untersuchung der Pflanzen auf Wurzelgallbildung nach dem sogenannten Wurzelgall-Index ("Knot Index")

[10] = 100 ppm, observed for three days

| Compound | Abtötung [1] | Nematodenbefall (Reduktion der Wurmeier im Kot) [3] | Abtötung sämtlicher Larven [6] | mortality at 100 ppm [2] [%] | mortality at 12.5 ppm [4] [%] | mortality at 100 ppm [5, 10] [%] | further results |
| --- | --- | --- | --- | --- | --- | --- | --- |
| 5-O-(1,2,4-Trizaol-1-yl)acetyl-13β-methyl-milbemycin A₄-Zink(II)-Komplex [Verbindung 2.35] | vollständige Abtötung | keinen Nematodenbefall |  |  |  |  | Wirkung (Mortalitätsrate) [2]: 100%; Abtötung [4]: 100%; Wirkung (Mortalität) [5, 10]: 100% |
| 5-O-(3,4-Dihydro-2H-pyran-2-yl)carboxyacetyl-13β-methyl-milbemycin A₄ [Verbindung 2.31] |  | keinen Nematodenbefall | vollständige Abtötung |  |  |  | Wirkung (Mortalitätsrate) [2]: 100%; Wirkung (Mortalität) [5, 10]: 100% |
| CC[C@H]1O[C@]2(CC[C@@H]1C)C[C@@H]1C[C@@H](C/C=C(\C)[C@H](C)[C@@H](C)/C=C/C=C3\CO[C@@H]4[C@H](OC(C)=O)C(C)=C[C@@H](C(=O)O1)[C@]34O)O2 [Verbindung 2.1, 5-O-Acetyl-13β-methyl-milbemycin A₄] |  | keinen Nematodenbefall | vollständige Abtötung | 100 |  |  |  |
| CC[C@H]1O[C@]2(CC[C@@H]1C)C[C@@H]1C[C@@H](C/C=C(\C)[C@H](C)[C@@H](C)/C=C/C=C3\CO[C@@H]4[C@H](OC(=O)CCl)C(C)=C[C@@H](C(=O)O1)[C@]34O)O2 [Verbindung 2.8, 5-O-Chloracetyl-13β-methyl-milbemycin A₄] | vollständige Abtötung | keinen Nematodenbefall | vollständige Abtötung | 100 | 100 | 100 | Abtötung [7]: vollständige Abtötung; Wirkung (IR₉₀) [8]: sehr gute Wirkung |
| CC[C@H]1O[C@]2(CC[C@@H]1C)C[C@@H]1C[C@@H](C/C=C(\C)[C@H](C)[C@@H](C)/C=C/C=C3\CO[C@@H]4[C@H](OC(=O)COC(C)=O)C(C)=C[C@@H](C(=O)O1)[C@]34O)O2 [Verbindung 2.17, 5-O-Acetoxy-acetyl-13β-methyl-milbemycin A₄] |  | keinen Nematodenbefall | vollständige Abtötung | 100 | 100 | 100 | Abtötung [7]: vollständige Abtötung; Restbefall (Wurzelgallbildung) [9]: 0-10% |
| CC[C@H]1O[C@]2(CC[C@@H]1C)C[C@@H]1C[C@@H](C/C=C(\C)[C@H](CC)[C@@H](C)/C=C/C=C3\CO[C@@H]4[C@H](OC(=O)COC(C)=O)C(C)=C[C@@H](C(=O)O1)[C@]34O)O2 [Verbindung 2.18, 5-O-Acetoxy-acetyl-13β-ethyl-milbemycin A₄] |  | keinen Nematodenbefall | vollständige Abtötung | 100 |  |  | Restbefall (Wurzelgallbildung) [9]: 0-10% |
| CC[C@H]1O[C@]2(CC[C@@H]1C)C[C@@H]1C[C@@H](C/C=C(\C)[C@H](C)[C@@H](C)/C=C/C=C3\CO[C@@H]4[C@H](OC(=O)Cn5cncn5)C(C)=C[C@@H](C(=O)O1)[C@]34O)O2 [Verbindung 2.33, 5-O-(1,2,4-Triazol-1-yl)-acetyl-13β-methyl-milbemycin A₄] | vollständige Abtötung | keinen Nematodenbefall | vollständige Abtötung | 100 | 100 | 100 | Wirkung (IR₉₀) [8]: sehr gute Wirkung; Restbefall (Wurzelgallbildung) [9]: 0-10% |
| CC[C@H]1O[C@]2(CC[C@@H]1C)C[C@@H]1C[C@@H](C/C=C(\C)[C@H](C)[C@@H](C)/C=C/C=C3\CO[C@@H]4[C@H](OC(=O)COC)C(C)=C[C@@H](C(=O)O1)[C@]34O)O2 [Verbindung 2.43, 5-O-Methoxyacetyl-13β-methyl-milbemycin A₄] | vollständige Abtötung | keinen Nematodenbefall | vollständige Abtötung | 100 | 100 |  | Abtötung [7]: vollständige Abtötung |
| CC[C@H]1O[C@]2(CC[C@@H]1C)C[C@@H]1C[C@@H](C/C=C(\C)[C@H](C)[C@@H](C)/C=C/C=C3\CO[C@@H]4[C@H](OC(=O)COC(=O)c5cccc(Cl)c5)C(C)=C[C@@H](C(=O)O1)[C@]34O)O2 [Verbindung 2.44, 5-O-(3-Chlorbenzoyloxy)-acetyl-13β-methyl-milbemycin A₄] |  | keinen Nematodenbefall |  |  |  |  |  |
| CC[C@H]1O[C@]2(CC[C@@H]1C)C[C@@H]1C[C@@H](C/C=C(\C)[C@H](CC)[C@@H](C)/C=C/C=C3\CO[C@@H]4[C@H](OC(=O)CCl)C(C)=C[C@@H](C(=O)O1)[C@]34O)O2 [Verbindung 2.45] |  | keinen Nematodenbefall |  | 100 |  |  |  |
| CC[C@H]1O[C@]2(CC[C@@H]1C)C[C@@H]1C[C@@H](C/C=C(\C)[C@H](C)[C@@H](C)/C=C/C=C3\CO[C@@H]4[C@H](OC(=O)COCOC)C(C)=C[C@@H](C(=O)O1)[C@]34O)O2 [Verbindung 2.48] |  |  |  |  |  | 100 |  |
| CC[C@H]1O[C@]2(CC[C@@H]1C)C[C@@H]1C[C@@H](C/C=C(\C)[C@H](C)[C@@H](C)/C=C/C=C3\CO[C@@H]4[C@H](OC(=O)COc5ccccc5)C(C)=C[C@@H](C(=O)O1)[C@]34O)O2 [Verbindung 2.53] |  | keinen Nematodenbefall |  |  |  |  |  |
| CC[C@H]1O[C@]2(CC[C@@H]1C)C[C@@H]1C[C@@H](C/C=C(\C)[C@H](C)[C@@H](C)/C=C/C=C3\CO[C@@H]4[C@H](OC(=O)COS(=O)(=O)c5ccc(C)cc5)C(C)=C[C@@H](C(=O)O1)[C@]34O)O2 [Verbindung 2.55] |  |  |  |  |  |  | mortality at 100 ppm [5]: 100% |
